We go through five compounds from patent US12120996B2, “Induction method for improving yield and fertility of 2n pollen in Camellia oleifera” (Central South University of Forestry and Technology, priority 2024, dated 2024).

Test [1] has as its system Camellia oleifera 'Huaxin' 2n pollen. Description: 2n pollen yield (occurrence frequency) after precursor application and 45° C. high-temperature treatment of flower branches. It counts as in vivo. On the procedure: (§1) After the high-temperature treatment was released, Camellia oleifera grew naturally until anthers were pollinated. Pollen of each treatment was collected, and a temporary smear of the pollen was made by an aceto-carmine staining method and then photographed by an OlympusDP70 optical microscope; and a diameter of pollen in a temporary smear of each treatment was measured by Image J software, and a yield and a fertility rate of 2n pollen were counted.
(§2) Pollen stained red by aceto-carmine was counted as fertile pollen, and pollen not stained red by aceto-carmine was counted as infertile pollen (as shown in FIG. 3).
(§3) An occurrence frequency of 2n pollen was a ratio of an amount of 2n pollen to a total amount of pollen observed, and a fertility rate of 2n pollen was a ratio of an amount of fertile 2n pollen to a total amount of 2n pollen observed. […] When no high-temperature treatment is applied, an occurrence frequency of 2n pollen is 0.9%, and a fertility rate is 100%. • 2. […] Treatment conditions for 2n pollen in Camellia oleifera in the present disclosure: a leptotene stage to a pachytene stage of pollen mother cells, a style length: less than 2.57 mm, an induction temperature: 43° C. to 49° C., and an induction time: 3 h to 6 h.
(§4) Flower branches with a style length developing to 1.97 mm<L≤2.27 mm and pollen mother cells at a leptotene stage to a pachytene stage were selected as target flower branches, and DMTU solutions with different concentrations were applied to the target flower branches, respectively; and a flower branch not treated with a DMTU solution was adopted as a control.
(§5) The concentrations of the DMTU solutions were 1 mg/L, 5 mg/L, 10 mg/L, 15 mg/L, 20 mg/L, and 25 mg/L, respectively. Preparation method of a DMTU solution: DMTU was first dissolved with an appropriate amount of alcohol, and then water was added to a required concentration.
(§6) The above DMTU solutions with different concentrations each were sprayed on a flower branch, where a DMTU solution was evenly sprayed on a flower branch by a sprayer until there were condensed water droplets flowing down from leaves or flower buds; and each treatment was numbered and recorded (as shown in Table 3).
(§7) After each DMTU solution was applied, in order to avoid rapid evaporation of a solution on a leaf surface due to a high-temperature treatment, the whole flower branch was wrapped with a plastic film, and then the non-ex vivo tree branch bud heating device in the authorized patent (patent ZL200610113448.X) was immediately used to apply a 45° C. high-temperature treatment to each target flower branch for 4 h, namely, a high-temperature doubling treatment. A doubling treatment method was the same as the doubling treatment method in step 1.2 of Example 1.
(§8) After a high-temperature treatment was conducted for 4 h, a heating bag and a plastic film were removed to release the high-temperature treatment, and Camellia oleifera was allowed to grow naturally until anthers were pollinated. Pollen of each treatment was collected, and a temporary smear of the pollen was made by an aceto-carmine staining method and then photographed by an Olympus DP70 optical microscope; and a diameter of pollen was measured by Image J software, and an occurrence frequency and a fertility rate of 2n pollen were counted.
(§9) The above reagents were applied through spraying on a flower branch and injection into a flower bud. The spraying on a flower branch was as follows: a precursor solution was evenly sprayed on the flower branch by a sprayer until there were condensed water droplets flowing down from leaves or flower buds. The injection into a flower bud was as follows: a precursor solution was injected into the flower bud by a 5 mL syringe (0.5×20 mm injection needle) through a scale gap at a top of the flower bud until there were water droplets overflowing a surface of the flower bud. […]

Test [2] shares this test system. Description: 2n pollen fertility rate (aceto-carmine staining) after precursor application and 45° C. high-temperature treatment of flower branches. The format is in vivo. The settings on record: for 2n pollen fertility rate (%): 45° C.; for k1 (K1/4, mean 2n pollen fertility rate at level 1): level 1: DMTU 5 mg/L, mannitol 0.1 g/L, ascorbic acid 0.5 mg/L, brassinolide 2.0 mg/L, sucrose 5 g/L; for k2 (K2/4, mean 2n pollen fertility rate at level 2): level 2: DMTU 10 mg/L, ascorbic acid 1.0 mg/L, sucrose 10 g/L; for k3 (K3/4, mean 2n pollen fertility rate at level 3): level 3: DMTU 15 mg/L, mannitol 1.0 g/L, brassinolide 6.0 mg/L, sucrose 15 g/L; for k4 (K4/4, mean 2n pollen fertility rate at level 4): level 4: DMTU 20 mg/L, mannitol 2.0 g/L, ascorbic acid 2.0 mg/L, brassinolide 8.0 mg/L, sucrose 30 g/L. As for the experimental part: as §1, §2, §3, §4, §5, §6, §7, §8, §9

The mark [3] stands for this setting: Injection into a flower bud, DMTU 10 mg/L, mannitol 0.5 g/L, ascorbic acid 1.5 mg/L, brassinolide 4.0 mg/L, 4 h (Example 2B).
Where [4] appears, read: Spraying on a flower branch, DMTU 10 mg/L, mannitol 0.5 g/L, ascorbic acid 1.5 mg/L, brassinolide 4.0 mg/L, 4 h (Example 2B).
Where [5] appears, read: mannitol 0.5 g/L, brassinolide 4.0 mg/L, in %.
[6] abbreviates: DMTU solution 1 mg/L sprayed on flower branch, 4 h.
[7] abbreviates: DMTU solution 5 mg/L sprayed on flower branch, 4 h.
Setting [8] is: DMTU solution 10 mg/L sprayed on flower branch, 4 h (Example 2A).
Where [9] appears, read: DMTU solution 15 mg/L sprayed on flower branch, 4 h.
Where [10] appears, read: DMTU solution 20 mg/L sprayed on flower branch, 4 h.
The mark [11] stands for this setting: DMTU solution 25 mg/L sprayed on flower branch, 4 h.

Consider `O=C1O[C@H]([C@@H](O)CO)C(O)=C1O` [Ascorbic acid, ascorbic acid], for which the “2n pollen yield (%)” value in test [1] (setting [3]) is 10.05%; in test [1] (setting [4]), 9.76%. Further, the “2n pollen fertility rate (%)” value in test [2] (setting [3]) amounted to 81.26%; in test [2] (setting [4]), 79.58%. In addition, the “k1 (K1/4, mean 2n pollen fertility rate at level 1)” value in test [2] came out at 80.47. Further, in test [2] (mannitol 0.5 g/L, brassinolide 4.0 mg/L), the “k2 (K2/4, mean 2n pollen fertility rate at level 2)” value was found to be 83.42. For the same compound, the “k3 (K3/4, mean 2n pollen fertility rate at level 3)” value in test [2] (ascorbic acid 1.5 mg/L) is recorded as 81.04. In test [2], the “k4 (K4/4, mean 2n pollen fertility rate at level 4)” value is 80.24.

For `CC(C)[C@H](C)[C@@H](O)[C@H](O)[C@@H](C)[C@H]1CC[C@H]2[C@@H]3COC(=O)[C@H]4C[C@H](O)[C@H](O)C[C@]4(C)[C@H]3CC[C@]12C` [Brassinolide, brassinolide], the figures for the “2n pollen yield (%)” value in test [1] (setting [3]) and in test [1] (setting [4]) were 11.03% and 10.83%, respectively. Also, the “2n pollen fertility rate (%)” value in test [2] (setting [3]) was 84.13%; in test [2] (setting [4]), 82.58%. In test [2] (in %), the “k1 (K1/4, mean 2n pollen fertility rate at level 1)” value is 79.88. For the same compound, the “k2 (K2/4, mean 2n pollen fertility rate at level 2)” value in test [2] (setting [5]) is listed as 82.98. Also, the “k3 (K3/4, mean 2n pollen fertility rate at level 3)” value in test [2] (ascorbic acid 1.5 mg/L, in %) was 81.95. Moreover, the “k4 (K4/4, mean 2n pollen fertility rate at level 4)” value in test [2] (in %) was determined as 80.36.

On to `CNC(=S)NC` [DMTU, N,N′-Dimethylthiourea], for which the “2n pollen yield (%)” value in test [1] (setting [6]) amounted to 9.17%; in test [1] (setting [7]) it was 9.81%; in test [1] (setting [8]), 11.52%; in test [1] (setting [9]), 10.83%; in test [1] (setting [10]), 10.15%; in test [1] (setting [11]), 9.05%. Moreover, the “2n pollen yield (%)” value in test [1] (setting [3]) was 12.17%; in test [1] (setting [4]), 11.52%. Besides, the “2n pollen yields and fertility rates compared with the control” value in test [2] (5 mg/L, 10 mg/L, 15 mg/L and 20 mg/L DMTU solutions sprayed on flower branches) is given as “significantly improved”. The “2n pollen fertility rate (%)” value in test [2] (setting [6]) was found to be 64.25%; in test [2] (setting [7]) it was 75.94%; in test [2] (setting [8]) it was 86.23%; in test [2] (setting [9]), 82.46%; in test [2] (setting [10]), 78.61%; in test [2] (setting [11]) it was 64.43%. The “2n pollen fertility rate (%)” value worked out at 90.14% in test [2] (setting [3]) and 86.97% in test [2] (setting [4]). The “k1 (K1/4, mean 2n pollen fertility rate at level 1)” value in test [2] (in %) amounted to 78.23. Moreover, in test [2] (setting [5]), the “k2 (K2/4, mean 2n pollen fertility rate at level 2)” value is listed as 87.54. Further, the “k3 (K3/4, mean 2n pollen fertility rate at level 3)” value in test [2] (ascorbic acid 1.5 mg/L, in %) is 81.12. The “k4 (K4/4, mean 2n pollen fertility rate at level 4)” value in test [2] (in %) is 78.28.

Take `OC[C@@H](O)[C@@H](O)[C@H](O)[C@H](O)CO` [Mannitol, mannitol]: the results for the “2n pollen yield (%)” value in test [1] (setting [3]) and in test [1] (setting [4]) were 9.68% and 9.81%, respectively. Moreover, the “2n pollen fertility rate (%)” value in test [2] (setting [3]) was 77.89%; in test [2] (setting [4]), 75.94%. In addition, the “k1 (K1/4, mean 2n pollen fertility rate at level 1)” value in test [2] (in %) worked out at 81.64. For the same compound, in test [2] (setting [5]), the “k2 (K2/4, mean 2n pollen fertility rate at level 2)” value came out at 82.95. In addition, in test [2] (ascorbic acid 1.5 mg/L, in %), the “k3 (K3/4, mean 2n pollen fertility rate at level 3)” value came to 80.98. Further, in test [2] (in %), the “k4 (K4/4, mean 2n pollen fertility rate at level 4)” value is on record as 79.59.

In the case of `OC[C@H]1O[C@@](CO)(O[C@H]2O[C@H](CO)[C@@H](O)[C@H](O)[C@H]2O)[C@@H](O)[C@@H]1O` [Sucrose, sucrose], in test [2] (in %), the “k1 (K1/4, mean 2n pollen fertility rate at level 1)” value was 80.87 and the “k4 (K4/4, mean 2n pollen fertility rate at level 4)” value is recorded as 80.44. Further, the “k2 (K2/4, mean 2n pollen fertility rate at level 2)” value in test [2] (setting [5]) is listed as 80.95. Also, in test [2] (ascorbic acid 1.5 mg/L, in %), the “k3 (K3/4, mean 2n pollen fertility rate at level 3)” value was determined as 82.91.
